According to patent US20260209250A1, “CRYSTAL FORM OF KRAS G12D INHIBITOR AND PREPARATION METHOD THEREFOR” (priority 2022, published 2026):

Assays:
[1] = Crystal form stability study (influencing factor experiments); type: physicochemical; details: for Physical and chemical properties (conclusion of influencing factor experiments): high temperatures and high humidities for 30 days
Protocol: Samples of the crystal forms A, B, C, I, J, and K of the compound represented by formula (I) were taken, spread in open containers, and left to stand under conditions of light exposure (4500 Lux), high temperatures (40° C. and 60° C.), and high humidities (RH 75% and RH 92.5%) for 30 days to investigate their stability, and the results are shown in Table 16.

[2] = Long-term/accelerated stability; type: physicochemical
[3] = 40° C., 10 days, open container
[4] = 40° C., 30 days, open container
[5] = 60° C., 10 days, open container
[6] = 60° C., 30 days, open container
[7] = 75% RH, 10 days, open container
[8] = 75% RH, 30 days, open container
[9] = 92.5% RH, 5 days, open container
[10] = 92.5% RH, 10 days, open container
[11] = 92.5% RH, 30 days, open container
[12] = light exposure (4500 Lux), 5 days, open container
[13] = light exposure (4500 Lux), 10 days, open container
[14] = light exposure (4500 Lux), 30 days, open container

CCc1c(F)ccc2cc(O)cc(-c3nc4c5c(nc(OC[C@@]67CCCN6C[C@H](F)C7)nc5c3F)N3C[C@H]5CC[C@H](N5)[C@H]3CO4)c12 [Crystal form I, 5-Ethyl-6-fluoro-4-((5aS,6S,9R)-1-fluoro-12-(((2R,7aS)-2-fluorotetrahydro-1H-pyrrolizin-7a(5H)-yl)methoxy)-5a,6,7,8,9,10-hexahydro-5H-4-oxa-3,10a,11,13,14-pentaaza-6,9-methanonaphtho[1,8-ab]heptalen-2-yl)naphthalen-2-ol]
Color and state ([1]; 40° C., 5 days, open container): Off-white solid
Crystal form ([1]; 40° C., 5 days, open container): Did not change
Purity % ([1]; 40° C., 5 days, open container): 99.6%
Color and state [1, 3]: Off-white solid
Crystal form [1, 3]: Did not change
Purity % [1, 3]: 99.4%
Color and state [1, 4]: Off-white solid
Crystal form [1, 4]: Did not change
Purity % [1, 4]: 99.3%
Color and state ([1]; 60° C., 5 days, open container): Off-white solid
Crystal form ([1]; 60° C., 5 days, open container): Did not change
Purity % ([1]; 60° C., 5 days, open container): 99.6%
Color and state [1, 5]: Off-white solid
Crystal form [1, 5]: Did not change
Purity % [1, 5]: 99.4%
Color and state [1, 6]: Off-white solid
Crystal form [1, 6]: Did not change
Purity % [1, 6]: 99.3%
Color and state ([1]; 75% RH, 5 days, open container): Off-white solid
Crystal form ([1]; 75% RH, 5 days, open container): Did not change
Purity % ([1]; 75% RH, 5 days, open container): 99.6%
Color and state [1, 7]: Off-white solid
Crystal form [1, 7]: Did not change
Purity % [1, 7]: 99.6%
Color and state [1, 8]: Off-white solid
Crystal form [1, 8]: Did not change
Purity % [1, 8]: 99.6%
Color and state [1, 9]: Off-white solid
Crystal form [1, 9]: Did not change
Purity % [1, 9]: 99.5%
Color and state [1, 10]: Off-white solid
Crystal form [1, 10]: Did not change
Purity % [1, 10]: 99.5%
Color and state [1, 11]: Off-white solid
Crystal form [1, 11]: Did not change
Purity % [1, 11]: 99.6%
Color and state ([1]; Initial, 0 days): Off-white solid
Crystal form ([1]; Initial, 0 days): Crystal form I
Purity % ([1]; Initial, 0 days): 99.6%
Physical and chemical properties (conclusion of influencing factor experiments) [1]: good physical and chemical properties
Color and state [1, 12]: Off-white solid
Crystal form [1, 12]: Did not change
Purity % [1, 12]: 99.6%
Color and state [1, 13]: Off-white solid
Crystal form [1, 13]: Did not change
Purity % [1, 13]: 99.5%
Color and state [1, 14]: Off-white solid
Crystal form [1, 14]: Did not change
Purity % [1, 14]: 99.2%
Purity % 1 month ([2]; 25° C./60% RH): 99.6%
Purity % 2 months ([2]; 25° C./60% RH): 99.6%
Purity % 3 months ([2]; 25° C./60% RH): 99.6%
Purity % Initial ([2]; 25° C./60% RH): 99.6%
Purity % 1 month ([2]; 40° C./75% RH): 99.6%
Purity % 2 months ([2]; 40° C./75% RH): 99.4%
Purity % 3 months ([2]; 40° C./75% RH): 99.6%
Purity % Initial ([2]; 40° C./75% RH): 99.6%

CCc1c(F)ccc2cc(O)cc(-c3nc4c5c(nc(OC[C@@]67CCCN6C[C@H](F)C7)nc5c3F)N3C[C@H]5CC[C@H](N5)[C@H]3CO4)c12 [Crystal form J, 5-Ethyl-6-fluoro-4-((5aS,6S,9R)-1-fluoro-12-(((2R,7aS)-2-fluorotetrahydro-1H-pyrrolizin-7a(5H)-yl)methoxy)-5a,6,7,8,9,10-hexahydro-5H-4-oxa-3,10a,11,13,14-pentaaza-6,9-methanonaphtho[1,8-ab]heptalen-2-yl)naphthalen-2-ol]
Color and state ([1]; 40° C., 5 days, open container): Off-white solid
Crystal form ([1]; 40° C., 5 days, open container): Did not change
Purity % ([1]; 40° C., 5 days, open container): 99.2%
Color and state [1, 3]: Off-white solid
Crystal form [1, 3]: Did not change
Purity % [1, 3]: 98.8%
Color and state [1, 4]: Off-white solid
Crystal form [1, 4]: Did not change
Purity % [1, 4]: 97.9%
Color and state ([1]; 60° C., 5 days, open container): Off-white solid
Crystal form ([1]; 60° C., 5 days, open container): Did not change
Purity % ([1]; 60° C., 5 days, open container): 99.1%
Color and state [1, 5]: Off-white solid
Crystal form [1, 5]: Did not change
Purity % [1, 5]: 98.5%
Color and state [1, 6]: Off-white solid
Crystal form [1, 6]: Did not change
Purity % [1, 6]: 97.4%
Color and state ([1]; 75% RH, 5 days, open container): Off-white solid
Crystal form ([1]; 75% RH, 5 days, open container): Did not change
Purity % ([1]; 75% RH, 5 days, open container): 99.6%
Color and state [1, 7]: Off-white solid
Crystal form [1, 7]: Did not change
Purity % [1, 7]: 99.6%
Color and state [1, 8]: Off-white solid
Crystal form [1, 8]: Did not change
Purity % [1, 8]: 99.5%
Color and state [1, 9]: Off-white solid
Crystal form [1, 9]: Did not change
Purity % [1, 9]: 99.6%
Color and state [1, 10]: Off-white solid
Crystal form [1, 10]: Did not change
Purity % [1, 10]: 99.5%
Color and state [1, 11]: Off-white solid
Crystal form [1, 11]: Did not change
Purity % [1, 11]: 99.5%
Color and state ([1]; Initial, 0 days): Off-white solid
Crystal form ([1]; Initial, 0 days): Crystal form J
Purity % ([1]; Initial, 0 days): 99.6%
Physical and chemical properties (conclusion of influencing factor experiments) [1]: good physical and chemical properties
Color and state [1, 12]: Off-white solid
Crystal form [1, 12]: Did not change
Purity % [1, 12]: 98.1%
Color and state [1, 13]: Pale yellow solid
Crystal form [1, 13]: Did not change
Purity % [1, 13]: 95.5%
Color and state [1, 14]: Pale yellow solid
Crystal form [1, 14]: Did not change
Purity % [1, 14]: 93.0%
Purity % 1 month ([2]; 25° C./60% RH): 99.5%
Purity % 2 months ([2]; 25° C./60% RH): 99.6%
Purity % 3 months ([2]; 25° C./60% RH): 99.6%
Purity % Initial ([2]; 25° C./60% RH): 99.6%
Purity % 1 month ([2]; 40° C./75% RH): 99.4%
Purity % 2 months ([2]; 40° C./75% RH): 99.3%
Purity % 3 months ([2]; 40° C./75% RH): 99.2%
Purity % Initial ([2]; 40° C./75% RH): 99.6%
